In publication PMC5641083, “Blockage of FOXP3 transcription factor dimerization and FOXP3/AML1 interaction inhibits T regulatory cell activity: sequence optimization of a peptide inhibitor” (Oncotarget, 2017):
Read-outs that look alike come from different tables or passages of the source.

Tests used:
[1] = test system: CT26 tumor cells; settings: AH1 in IFA, P60 50 nanomol/mice/day i.p. day 0 to day 9, 5 × 10^5 cells; cited from earlier work
[2] = test system: CT26 tumor cells; experiment: AH1 vaccination and CT26 tumor challenge; assay type: in vivo, BALB/c mice; settings: AH1 in IFA, peptide 10 nanomol/mice/day i.p. 10 days, challenge 10^6 CT26 cells s.c. day 10
Experimental: In those experiments, BALB/c mice were immunized with peptide AH1 emulsified in IFA and treated daily with saline or with 50 nanomol/mice/day of peptide P60 i.p. from day 0 to day 9 after immunization. To study the efficacy of CM-1315, our optimized version of P60, mice immunized with AH1 were treated with 10 nanomol/mice/day of P60 or CM-1315 and challenged at day 10 by s.c. injection with 10^6 CT26 tumor cells (instead of 5 × 10^5 cells used in our previous study). As control, groups of mice were injected with AH1 alone or left untreated.
For tumor rejection experiments, Hepa-129 cells (10^6 cells/mouse), were injected subcutaneously (sc) in C3H/HeN mice (n = 6). Ten days later, when the tumor reached 5 mm in diameter, mice were randomly divided into different experimental groups. A group of mice were treated i.p. with anti-PD1 antibodies (50 μg/mouse). Antibody administration was repeated one week after this first administration. A group of mice treated with anti-PD1 also received the cyclic peptide CM-1215 from days 10 to 20 (50 μg/mice/day). Tumor size, presented as the average of two perpendicular diameters (millimetres), was measured at regular intervals. Mice were sacrificed when the mean tumor diameter was greater than 20 mm. […] Tumor size was monitored twice a week with a calliper and it was expressed according to the formula V = (length × width^2)/2. […]

[3] = molecular target: T1, FOXP3/AML1 interaction (Homo sapiens, UniProt Q9BZS1); experiment: AlphaScreen FOXP3/AML1 heterodimerization assay; assay type: biochemical
T1 sequence (Q9BZS1 1-431): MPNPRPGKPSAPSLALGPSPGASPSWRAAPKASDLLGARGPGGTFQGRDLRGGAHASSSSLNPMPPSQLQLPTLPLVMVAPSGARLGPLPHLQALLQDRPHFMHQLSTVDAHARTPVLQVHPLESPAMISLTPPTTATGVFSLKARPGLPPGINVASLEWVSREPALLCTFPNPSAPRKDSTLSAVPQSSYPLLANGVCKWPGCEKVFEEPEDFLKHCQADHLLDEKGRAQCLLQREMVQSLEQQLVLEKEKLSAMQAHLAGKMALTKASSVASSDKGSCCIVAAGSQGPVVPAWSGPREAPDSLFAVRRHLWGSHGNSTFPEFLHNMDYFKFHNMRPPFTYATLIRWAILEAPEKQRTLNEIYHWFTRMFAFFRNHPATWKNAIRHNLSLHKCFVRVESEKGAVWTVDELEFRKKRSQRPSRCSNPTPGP
Description: AML1 is required for IL-2 and IFN-γ gene expression in conventional CD4+ T cells and its interaction with FOXP3 is needed for the immunosuppressive activity of Tregs. On the other hand, it has been described that the leucine zipper region is necessary and sufficient to mediate FOXP3 homo-dimerization, which is required for its function as a transcriptional regulator [13, 15, 20]. Thus, since P60 binds to this FOXP3 intermediate region, we analyzed if it could act as a decoy molecule to inhibit FOXP3 homodimerization or the FOXP3-AML1 heterodimerization. The capacity of FOXP3 to homodimerize was measured using the […] assay platform AlphaScreen™ (Perkin Elmer). Previous protein-cross titration experiment using different concentrations of FOXP3-6His (from 1000 to 0 nM) and GST-FOXP3 (from 300 to 0 nM) allowed us to define the optimal protein concentrations to analyze FOXP3 homodimerization (Figure 2A). […] We also tested if GST tagged FOXP3 was able to interact with AML1 protein tagged with 6 His at the N-terminus. As shown in the cross titration experiments in Figure 2C, a specific FOXP3-AML1 heterodimerization was visualized as an increase in the AlphaScreen signal.
FOXP3/AML1 heterodimerization, as well as FOXP3/FOXP3 homodimerization were analyzed by Alphascreen technology according to the manufacturer's instructions (Perkin Elmer, Benelux) as previously described.

Substance: H-RDFQSFRKMWPFFAM-OH [P60]
- Protection against CT26 tumor challenge (in words) [1]: protected mice from CT26 tumor challenge
- Protection against CT26 tumor challenge (in words) [2]: only animals treated with CM-1315 remained protected
- Inhibition of FOXP3-AML1 heterodimerization (in words) [3]: able to reduce the signal in a dose dependent manner
